Data taken from publication PMC4684500, “Diversity, Antimicrobial Action and Structure-Activity Relationship of Buffalo Cathelicidins” (PLoS ONE, 2015).
Where no end group is shown, it is not given here.

What was measured:
[1] = test system: S. aureus, S. typhimurium and P. aeruginosa; assay: Time kill kinetics, three pathogens; assay type: cell-based; conditions: peptide at 4× MIC
Procedure: (§1) The buCATHL4 peptides were synthesized by G L Biochem (Shanghai, China). Purity and molecular mass of the peptides were provided by the vendors using HPLC and mass spectrometry, respectively. The purity of all peptides were >98%. Minimum inhibitory concentrations (MIC) of buCATHL4s against the pathogenic microorganisms were tested by broth micro-dilution technique. Briefly, bacteria were grown in Mueller Hinton broth (Sigma-Aldrich, MO, USA) at 37°C. The OD of early-log phase cultures were adjusted to 0.08–0.1 and further diluted (1:200) to keep inoculums concentration nearly 10^6 colony forming units (CFU)/ml. Diluted peptides (10 μl) were mixed with equi-volume solution A (0.02% acetic acid containing 0.4% BSA) and were serially diluted in the solution B (0.01% acetic acid containing 0.2% BSA). Bacterial inoculums (90 μl) were mixed with serially diluted peptides and incubated at 37°C for 24 h without shaking. […] All peptides were tested in triplicate. For time kill kinetics experiments, peptides (1×, 2× and 4× MIC) were added to bacterial suspension of Staphylococcus aureus, Salmonella enterica and Pseudomonas aeruginosa, as described in the MIC determination method. Aliquots of representative wells were diluted and plated on Muller Hinton agar plates at 0, 1, 4, 12 and 24 h intervals. Water with 0.01% acetic acid and ampicillin (100 mg/ml) were taken as […] controls, respectively. The results were represented as log CFU/ml.

S. aureus [2] = assay: Scanning and transmission electron microscopy; assay type: cell-based, Staphylococcus aureus; conditions: lower concentrations (≤2× MIC)
Procedure: (§2) Early log phase cultures of S. aureus and S. enterica were subjected to different concentration of peptides and incubated at 37°C. The bacterial pellets after centrifugation (5000 g for 10 min) were washed with 0.1M cacodylate buffer (pH 7.2) and were fixed in 2.5% gluteraldehyde at 4°C for 2 h. For scanning electron microscopy, bacteria were dehydrated using gradient series of ethanol wash (30, 50, 70, 90 and absolute). The samples were air-dried overnight, gold coated (Eiko IB-3 ion coater), and viewed in a Zeiss EVO 18 Special Edition SEM. For transmission electron microscopy, fixed samples were adhered to hexagonal PELCO® Grids (Ted Pella, Inc. USA), washed once with Mili-Q water and stained with uranyl acetate (2%) buffer. Samples were viewed in a JEM 1011 (Jeol, Japan) microscope.

P. aeruginosa biofilm = assay: Biofilm assay (crystal violet); assay type: cell-based, Pseudomonas aeruginosa; conditions: peptide at 1× and 2× MIC, 24 h 37°C, crystal violet A570
Procedure: (§3) The efficacy of peptides against biofilms of S. aureus and P. aeruginosa was determined using previously described method. Overnight grown bacterial cultures were diluted (1:100) and 200 μl suspensions were mixed with each peptide (1× and 2× MIC) in a 96 well plate and incubated for 24 h at 37°C. Biofilms were fixed with paraformadehyde solution, cultures were decanted and 0.1% crystal violet solution was added to stain the film. The plate was rinsed thrice with water and air-dried. The stain was dissolved by 100 μl of acetic acid (30%) and absorbance was measured at 570 nm. The experiment was performed in triplicate, 30% acetic acid was taken as a blank.

[3] = test system: Pseudomonas aeruginosa NCDC-0105; assay type: cell-based; conditions: NCDC-0105, 24 h
Procedure: as §1

[4] = test system: Salmonella typhimurium ATCC-14028; assay type: cell-based; conditions: ATCC-14028, 24 h
Procedure: as §1

[5] = test system: Bacillus cereus NCDC-0240; assay type: cell-based; conditions: NCDC-0240, 24 h
Procedure: as §1

[6] = test system: Pseudomonas aeruginosa ATCC-27853; assay type: cell-based; conditions: ATCC-27853, 24 h
Procedure: as §1

[7] = test system: Acinetobacter johnsonii NCDC-0072; assay type: cell-based; conditions: 24 h
Procedure: as §1

[8] = test system: Escherichia coli MTCC-0723; assay type: cell-based; conditions: MTCC-0723, 24 h
Procedure: as §1

[9] = test system: Listeria monocytogenes ATCC-19111; assay type: cell-based; conditions: ATCC-19111, 24 h
Procedure: as §1

S. aureus biofilm = assay: Biofilm assay (crystal violet); assay type: cell-based, Staphylococcus aureus; conditions: peptide at 1× and 2× MIC, 24 h 37°C, crystal violet A570
Procedure: as §3

S. aureus [10] = assay: LIVE/DEAD BacLight membrane permeability assay; assay type: cell-based, Staphylococcus aureus; conditions: peptide 200μM, log phase culture, SYTO9/PI
Procedure: (§4) The damage to bacterial membrane following addition of peptide was assessed by BacLight kit (Life Technologies, CA, USA). Aliquots of S. aureus, S. enterica and P. aeruginosa cultures from exponential (shaking incubation for 2, 3, and 4 h, respectively) and stationary phases (overnight incubation) were harvested by centrifugation (5000 g for 10 min) and diluted in PBS. Peptides (200μM) were added to bacterial suspension and 50 μl aliquots were removed immediately or after 1 h incubation. Equi-volume mixtures of SYTO9/PI (3 μl/ml bacterial suspension) were added to these aliquots and fluorescent micrographs of stained bacteria were taken at 1000×magnification in a microscope (Olympus BX51 fitted with DP71 camera) with a fluorescence illuminator system.

S. typhimurium [11] = assay: LIVE/DEAD BacLight membrane permeability assay; assay type: cell-based, Salmonella typhimurium; conditions: peptide 200μM, SYTO9/PI
Procedure: as §4

S. aureus [12] = assay: Time kill kinetics; assay type: cell-based, Staphylococcus aureus
Procedure: as §1

S. typhimurium [13] = assay: Scanning and transmission electron microscopy; assay type: cell-based, Salmonella typhimurium
Procedure: as §2

PBMCs = assay: In vitro cytokine response, qRT-PCR; assay type: cell-based, buffalo; conditions: peptide 500 nM, 1 h, qRT-PCR vs PBS control, p<0.05
Procedure: For measurement of in vitro cytokine response, PBMCs were isolated from blood and maintained in serum-free RPMI-1640 (Sigma Aldrich, MO, USA) medium. Cells were exposed to peptides (500 nM), muramyl-di-peptide (Invivogen, San Diego, CA) [MDP (10 μg/ml) as positive control] and PBS (negative control). Cells were incubated for 1 h and relative mRNA abundance of cytokines was quantified by qRT-PCR using RPS-18 gene as housekeeping control. Total RNA, extracted by TRIzol (Ambion, CA, USA) method was used for cDNA preparation (Superscript III cDNA synthesis kit; Invitrogen, CA, USA).qRT-PCR reactions were performed in a Light Cycler® 480 II machine (Roche Diagnostics, USA). Each reaction consisted of 2 μl cDNA template, 5 μl of 2× SYBR® Green PCR Master Mix (Thermo Scientific, PA, USA), 0.25 μl each of forward and reverse primers (10 pmol) and nuclease free water for a final volume of 10 μl. Each sample was run in duplicate.

[14] = test system: Stahylococcus aureus ATCC-29213; assay type: cell-based, Staphylococcus aureus; conditions: ATCC-29213, 24 h
Procedure: as §1

[15] = test system: Stahylococcus aureus NCDC-0111; assay type: cell-based, Staphylococcus aureus; conditions: 24 h
Procedure: as §1

In the case of RIRFPWPWRWPWWRRVRG [buCATHL4C], the “Killing rate compared with indolicidin and ampicillin” value [1] is reported as “comparatively better killing rate”, the “Morphological change of S. aureus cells (SEM/TEM)” value (S. aureus [2]) is reported as “swelling and blebing” and the “Reduction in biofilm growth of P. aeruginosa” value (P. aeruginosa biofilm) is reported as “substantial”. The MIC [3] was 6 µM, the MIC [4] was 3 µM and the MIC [5] was 0.8 µM. The MIC [6] was 0.2 µM, the MIC [7] was 6 µM and the MIC [8] was 12.5 µM. For the same sequence, the MIC [9] was 1.5 µM, the “Reduction in biofilm growth of S. aureus” value (S. aureus biofilm) was “substantial” and the “Clumping (agglutination) of S. aureus after peptide addition” value (S. aureus [10]) was “immediate clumping”. The “Clumping (agglutination) of S. typhimurium after peptide addition” value (S. typhimurium [11]; log phase culture) was “immediate clumping”, the “Membrane permeability of latent (stationary phase) S. typhimurium” value (S. typhimurium [11]; stationary phase culture, proportion of cells affected comparatively less) was “affected membrane permeability” and the “Growth inhibition of S. aureus in time kill kinetics” value (S. aureus [12]; peptide at 2× MIC, plating at 0, 1, 4, 12, 24 h) was “complete growth inhibition”. For the same sequence, the “Time to complete elimination of S. aureus” value (S. aureus [12]; peptide at 4× MIC, time kill kinetics) was 4 h, the “Formation of pore like structures over the membrane (SEM/TEM)” value (S. typhimurium [13]; Fig 5H and 5L, S. typhimurium, with extensive wrinkling of membrane) was “Formation of pore like structures” and the “Formation of negative curvature on membrane (SEM/TEM)” value (S. typhimurium [13]; more evident with S. typhimurium) was “Formation of negative curvature”. For the same sequence, the “TNF-α mRNA response” value (PBMCs) was “significantly higher”, the MIC [14] was 0.2 µM and the MIC [15] was 0.4 µM.
